Experimental data from PubChem BioAssay AID1963829 (Molecular Pharmacology Branch, DTP, NCI, 2024).

System: 935938-334-R-J1-PDC complex spheroid viability
Assay: Anticancer human tumor 935938-334-R-J1-PDC patient-derived small intestine adenocarcinoma cell line growth inhibition [POLQ]
Conditions: curve of first compound; second compound 0.0316 µM
How it was run: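 Patient-derived tumour cells were co-cultured with HUVEC and mesenchymal stem cells as multicellular spheroids at 37 °C. They were treated with POLQ inhibitors (novobiocin, ART-558, RP6685) alone or combined with other agents. Top concentrations were at or near clinical Cmax (otherwise 10 microM; SN-38 at 1 microM), decreasing in half-log steps.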
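Also: spheroids exposed to drugs for seven days before viability read.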

| Compound | IC50 |
| --- | --- |
| Cn1ncnc1[C@H]1c2n[nH]c(=O)c3cc(F)cc(c23)N[C@@H]1c1ccc(F)cc1 + COC1C(OC(N)=O)C(O)C(Oc2ccc3c(O)c(NC(=O)c4ccc(O)c(CC=C(C)C)c4)c(=O)oc3c2C)OC1(C)C | > 100 nM |
| CCc1c2c(nc3ccc(O)cc13)-c1cc3c(c(=O)n1C2)COC(=O)[C@]3(O)CC + Nc1ccc(C#CCN(C(=O)Cc2ncc(C(F)(F)F)cc2C(F)(F)F)c2ccc(F)cc2)nn1 | 20.2 nM |
| COc1ccc([C@@H](O)c2cc(-c3ncnc4cc(N5CCOCC5)ccc34)c(F)cc2Cl)nn1 + Nc1ccc(C#CCN(C(=O)Cc2ncc(C(F)(F)F)cc2C(F)(F)F)c2ccc(F)cc2)nn1 | 6570 nM |
| C=CCn1c(=O)c2cnc(Nc3ccc(N4CCN(C)CC4)cc3)nc2n1-c1cccc(C(C)(C)O)n1 + COC1C(OC(N)=O)C(O)C(Oc2ccc3c(O)c(NC(=O)c4ccc(O)c(CC=C(C)C)c4)c(=O)oc3c2C)OC1(C)C | 651 nM |
| O=C(Nc1ccc(O)c(NS(=O)(=O)c2ccc(F)cc2)c1)c1ccc(-c2ccccc2)cc1 + Nc1ccc(C#CCN(C(=O)Cc2ncc(C(F)(F)F)cc2C(F)(F)F)c2ccc(F)cc2)nn1 | > 10000 nM |
| C=CC(=O)N1CCN(c2nc(=O)n(-c3c(C)ccnc3C(C)C)c3nc(-c4c(O)cccc4F)c(F)cc23)C(C)C1 (stereo unspecified) + Nc1ccc(C#CCN(C(=O)Cc2ncc(C(F)(F)F)cc2C(F)(F)F)c2ccc(F)cc2)nn1 | > 10000 nM |

Same assay, conditions: curve of first compound; second compound 0.1 µM

| Compound | IC50 |
| --- | --- |
| Cn1ncnc1[C@H]1c2n[nH]c(=O)c3cc(F)cc(c23)N[C@@H]1c1ccc(F)cc1 + COC1C(OC(N)=O)C(O)C(Oc2ccc3c(O)c(NC(=O)c4ccc(O)c(CC=C(C)C)c4)c(=O)oc3c2C)OC1(C)C | > 100 nM |
| CCc1c2c(nc3ccc(O)cc13)-c1cc3c(c(=O)n1C2)COC(=O)[C@]3(O)CC + Nc1ccc(C#CCN(C(=O)Cc2ncc(C(F)(F)F)cc2C(F)(F)F)c2ccc(F)cc2)nn1 | 17.1 nM |
| COc1ccc([C@@H](O)c2cc(-c3ncnc4cc(N5CCOCC5)ccc34)c(F)cc2Cl)nn1 + Nc1ccc(C#CCN(C(=O)Cc2ncc(C(F)(F)F)cc2C(F)(F)F)c2ccc(F)cc2)nn1 | 5840 nM |
| C=CCn1c(=O)c2cnc(Nc3ccc(N4CCN(C)CC4)cc3)nc2n1-c1cccc(C(C)(C)O)n1 + COC1C(OC(N)=O)C(O)C(Oc2ccc3c(O)c(NC(=O)c4ccc(O)c(CC=C(C)C)c4)c(=O)oc3c2C)OC1(C)C | 593 nM |
| O=C(Nc1ccc(O)c(NS(=O)(=O)c2ccc(F)cc2)c1)c1ccc(-c2ccccc2)cc1 + Nc1ccc(C#CCN(C(=O)Cc2ncc(C(F)(F)F)cc2C(F)(F)F)c2ccc(F)cc2)nn1 | > 10000 nM |
| C=CC(=O)N1CCN(c2nc(=O)n(-c3c(C)ccnc3C(C)C)c3nc(-c4c(O)cccc4F)c(F)cc23)C(C)C1 (stereo unspecified) + Nc1ccc(C#CCN(C(=O)Cc2ncc(C(F)(F)F)cc2C(F)(F)F)c2ccc(F)cc2)nn1 | > 10000 nM |

Same assay, conditions: curve of first compound; second compound 0.316 µM

| Compound | IC50 |
| --- | --- |
| Cn1ncnc1[C@H]1c2n[nH]c(=O)c3cc(F)cc(c23)N[C@@H]1c1ccc(F)cc1 + COC1C(OC(N)=O)C(O)C(Oc2ccc3c(O)c(NC(=O)c4ccc(O)c(CC=C(C)C)c4)c(=O)oc3c2C)OC1(C)C | > 100 nM |
| CCc1c2c(nc3ccc(O)cc13)-c1cc3c(c(=O)n1C2)COC(=O)[C@]3(O)CC + Nc1ccc(C#CCN(C(=O)Cc2ncc(C(F)(F)F)cc2C(F)(F)F)c2ccc(F)cc2)nn1 | 18.3 nM |
| COc1ccc([C@@H](O)c2cc(-c3ncnc4cc(N5CCOCC5)ccc34)c(F)cc2Cl)nn1 + Nc1ccc(C#CCN(C(=O)Cc2ncc(C(F)(F)F)cc2C(F)(F)F)c2ccc(F)cc2)nn1 | 5430 nM |
| C=CCn1c(=O)c2cnc(Nc3ccc(N4CCN(C)CC4)cc3)nc2n1-c1cccc(C(C)(C)O)n1 + COC1C(OC(N)=O)C(O)C(Oc2ccc3c(O)c(NC(=O)c4ccc(O)c(CC=C(C)C)c4)c(=O)oc3c2C)OC1(C)C | 729 nM |
| O=C(Nc1ccc(O)c(NS(=O)(=O)c2ccc(F)cc2)c1)c1ccc(-c2ccccc2)cc1 + Nc1ccc(C#CCN(C(=O)Cc2ncc(C(F)(F)F)cc2C(F)(F)F)c2ccc(F)cc2)nn1 | > 10000 nM |
| C=CC(=O)N1CCN(c2nc(=O)n(-c3c(C)ccnc3C(C)C)c3nc(-c4c(O)cccc4F)c(F)cc23)C(C)C1 (stereo unspecified) + Nc1ccc(C#CCN(C(=O)Cc2ncc(C(F)(F)F)cc2C(F)(F)F)c2ccc(F)cc2)nn1 | > 10000 nM |

Same assay, conditions: curve of first compound; second compound 1 µM

| Compound | IC50 |
| --- | --- |
| Cn1ncnc1[C@H]1c2n[nH]c(=O)c3cc(F)cc(c23)N[C@@H]1c1ccc(F)cc1 + COC1C(OC(N)=O)C(O)C(Oc2ccc3c(O)c(NC(=O)c4ccc(O)c(CC=C(C)C)c4)c(=O)oc3c2C)OC1(C)C | > 100 nM |
| CCc1c2c(nc3ccc(O)cc13)-c1cc3c(c(=O)n1C2)COC(=O)[C@]3(O)CC + Nc1ccc(C#CCN(C(=O)Cc2ncc(C(F)(F)F)cc2C(F)(F)F)c2ccc(F)cc2)nn1 | 22.3 nM |
| COc1ccc([C@@H](O)c2cc(-c3ncnc4cc(N5CCOCC5)ccc34)c(F)cc2Cl)nn1 + Nc1ccc(C#CCN(C(=O)Cc2ncc(C(F)(F)F)cc2C(F)(F)F)c2ccc(F)cc2)nn1 | 5240 nM |
| C=CCn1c(=O)c2cnc(Nc3ccc(N4CCN(C)CC4)cc3)nc2n1-c1cccc(C(C)(C)O)n1 + COC1C(OC(N)=O)C(O)C(Oc2ccc3c(O)c(NC(=O)c4ccc(O)c(CC=C(C)C)c4)c(=O)oc3c2C)OC1(C)C | 585 nM |
| O=C(Nc1ccc(O)c(NS(=O)(=O)c2ccc(F)cc2)c1)c1ccc(-c2ccccc2)cc1 + Nc1ccc(C#CCN(C(=O)Cc2ncc(C(F)(F)F)cc2C(F)(F)F)c2ccc(F)cc2)nn1 | > 10000 nM |
| C=CC(=O)N1CCN(c2nc(=O)n(-c3c(C)ccnc3C(C)C)c3nc(-c4c(O)cccc4F)c(F)cc23)C(C)C1 (stereo unspecified) + Nc1ccc(C#CCN(C(=O)Cc2ncc(C(F)(F)F)cc2C(F)(F)F)c2ccc(F)cc2)nn1 | > 10000 nM |

Same assay, conditions: curve of first compound; second compound 3.16 µM

| Compound | IC50 |
| --- | --- |
| Cn1ncnc1[C@H]1c2n[nH]c(=O)c3cc(F)cc(c23)N[C@@H]1c1ccc(F)cc1 + COC1C(OC(N)=O)C(O)C(Oc2ccc3c(O)c(NC(=O)c4ccc(O)c(CC=C(C)C)c4)c(=O)oc3c2C)OC1(C)C | > 100 nM |
| CCc1c2c(nc3ccc(O)cc13)-c1cc3c(c(=O)n1C2)COC(=O)[C@]3(O)CC + Nc1ccc(C#CCN(C(=O)Cc2ncc(C(F)(F)F)cc2C(F)(F)F)c2ccc(F)cc2)nn1 | 15.1 nM |
| COc1ccc([C@@H](O)c2cc(-c3ncnc4cc(N5CCOCC5)ccc34)c(F)cc2Cl)nn1 + Nc1ccc(C#CCN(C(=O)Cc2ncc(C(F)(F)F)cc2C(F)(F)F)c2ccc(F)cc2)nn1 | 3680 nM |
| C=CCn1c(=O)c2cnc(Nc3ccc(N4CCN(C)CC4)cc3)nc2n1-c1cccc(C(C)(C)O)n1 + COC1C(OC(N)=O)C(O)C(Oc2ccc3c(O)c(NC(=O)c4ccc(O)c(CC=C(C)C)c4)c(=O)oc3c2C)OC1(C)C | 617 nM |
| O=C(Nc1ccc(O)c(NS(=O)(=O)c2ccc(F)cc2)c1)c1ccc(-c2ccccc2)cc1 + Nc1ccc(C#CCN(C(=O)Cc2ncc(C(F)(F)F)cc2C(F)(F)F)c2ccc(F)cc2)nn1 | > 10000 nM |
| C=CC(=O)N1CCN(c2nc(=O)n(-c3c(C)ccnc3C(C)C)c3nc(-c4c(O)cccc4F)c(F)cc23)C(C)C1 (stereo unspecified) + Nc1ccc(C#CCN(C(=O)Cc2ncc(C(F)(F)F)cc2C(F)(F)F)c2ccc(F)cc2)nn1 | > 10000 nM |

Same assay, conditions: curve of first compound; second compound 10 µM

| Compound | IC50 |
| --- | --- |
| Cn1ncnc1[C@H]1c2n[nH]c(=O)c3cc(F)cc(c23)N[C@@H]1c1ccc(F)cc1 + COC1C(OC(N)=O)C(O)C(Oc2ccc3c(O)c(NC(=O)c4ccc(O)c(CC=C(C)C)c4)c(=O)oc3c2C)OC1(C)C | > 100 nM |
